From patent publication US8206756B2, “Herbal composition for inflammatory disorders” (Piramal Life Sciences Limited, priority 2005, dated 2012)
pIC50: −log10 of the molar value.

Key:
Type in all cases: cell-based
TNF-α [1] = assay: TNF-α production by synovial cells from a RA patient; settings: Homo sapiens, Synovial cell, 10 hours
Procedure: (§1) Cytokine production by synovial cells obtained from a rheumatoid arthritis (RA) patient undergoing knee replacement surgery was measured according to the method described by Brennan, F. M. et al (The Lancet. July 29: 244-247, (1989)). The synovial membrane tissue was digested in DMEM (Gibco) containing 10% FBS, 100 U/ml penicillin and 100 μg/ml streptomycin, 4 mg/ml collagenase type I (Worthington), 1.5 μg/ml Dnase type I (Sigma) and 15 U/ml heparin and incubated at 37° C. for 3 hours. After incubation, the digested tissue was filtered through a 70-μm membrane and the cells washed 3 times in complete medium (DMEM with 10% FBS). The synovial cells were cultured at 1×10^6 cells/ml in presence/absence of the test sample for 10 hours. The supernatants were harvested by centrifugation and levels of the cytokines (TNF-α, IL-1β, IL-6, IL-8) measured by ELISA. To assess the cytotoxic effect of the plant extracts, the cellular viability test was performed using MTS reagent. The 50% inhibitory concentration (IC50) values were calculated by a nonlinear regression method using GraphPad software (Prism 3.03).
(§2) Effect on proinflammatory cytokines produced by synovial cells obtained from a RA patient was studied for compound 1 as described by procedure of example 8.

TNF-α [2] = assay: LPS-induced TNF-α production in hPBMCs (ELISA); settings: Homo sapiens; LPS-stimulated hPBMC
Procedure: Primary screening—Human peripheral blood mononuclear cells (hPBMCs). TNF-α production by lipopolysaccharides (LPS) in hPBMCs was measured according to the method described by Jansky, L. et al (Physiol. Res. 52: 593-598, (2003)). Blood was collected from healthy donors into Potassium EDTA vacutainer tubes (BD vacutainer). The PBMCs were isolated using gradient centrifugation in Histopaque-1077 solution (Sigma). Isolated PBMCs were suspended in RPMI 1640 culture medium (Gibco BRL, Pasley, UK) containing 10% fetal bovine serum (FBS) (Hyclone, Utah, USA), 100 U/ml penicillin (Sigma Chemical Co. St Louis, Mo.) and 100 μg/ml streptomycin (Sigma Chemical Co. St Louis, Mo.). The cell concentration was adjusted to 1×10^6 cells/ml. The viability as determined by trypan blue dye exclusion was uniformly ≧98%. The cell suspension (100 μl) was added to the wells of a 96-well culture plate. Following cell plating, 79 μl of the culture medium and 1 μl of eight different concentrations of the test samples (final concentration 0.03, 0.1, 0.3, 1, 3, 10, 30, 100 μg/ml) dissolved in DMSO (dimethylsulfoxide, Sigma, Mo., USA) were added to the cells. The final concentration of DMSO was adjusted to 0.5%. The vehicle (0.5% DMSO) was used as control. Rolipram (100, 300 μM) was used as a standard. The plates were incubated for 30 min at 37° C. in an atmosphere of 5% CO2. Finally, 20 μl (10 μg/ml) per well of LPS, (Escherchia coli 0127:B8, Sigma Chemical Co., St. Louis, Mo.) was added, for a final concentration of 1 μg/ml. […] The % inhibition was recorded. Percent cytotoxicity of the test samples compared to control was evaluated.
(§3) The effect of the plant extract on the proinflammatory cytokines: TNF-α, interleukin-1β (IL-1β), interleukin-6 (IL-6) and interleukin-8 (IL-8) was measured using the supernatants generated in the primary screening assay. […]
(§4) The effect of the Compound 1, on the proinflammatory cytokines: TNF-α interleukin-1β (IL-1β), interleukin-6 (IL-6) and interleukin-8 (IL-8) was measured using the supernatants generated in the primary screening assay. […]

IL-8 [3] = assay: LPS-stimulated IL-8 release in hPBMCs (ELISA); settings: Homo sapiens; LPS-stimulated hPBMC
Procedure: (§5) Primary screening—Human peripheral blood mononuclear cells (hPBMCs). TNF-α production by lipopolysaccharides (LPS) in hPBMCs was measured according to the method described by Jansky, L. et al (Physiol. Res. 52: 593-598, (2003)). Blood was collected from healthy donors into Potassium EDTA vacutainer tubes (BD vacutainer). The PBMCs were isolated using gradient centrifugation in Histopaque-1077 solution (Sigma). Isolated PBMCs were suspended in RPMI 1640 culture medium (Gibco BRL, Pasley, UK) containing 10% fetal bovine serum (FBS) (Hyclone, Utah, USA), 100 U/ml penicillin (Sigma Chemical Co. St Louis, Mo.) and 100 μg/ml streptomycin (Sigma Chemical Co. St Louis, Mo.). The cell concentration was adjusted to 1×10^6 cells/ml. The viability as determined by trypan blue dye exclusion was uniformly ≧98%. […] The % inhibition was recorded. Percent cytotoxicity of the test samples compared to control was evaluated.
as §3, §4

VCAM-1 = assay: Cell-ELISA for adhesion molecule expression in HUVECs: VCAM-1; settings: Homo sapiens; TNF-α-induced surface expression, HUVEC
Procedure: (§6) The assay was designed on the basis of reference Transplantation, Vol 63(5), 759-764, 1997 with modifications.
(§7) Human Umbilical Vein Endothelial Cells (HUVECs) were obtained from Cascade Biologics and were maintained in M200 (Cascade Biologics, Portland, Oreg.) supplemented with low serum growth supplement (LSGS) at 37° C. in a 5% CO2 incubator. U937 cells (ATCC, Manassas, Va.) were grown in the RPMI 1640 medium supplemented with 10% FBS (Hyclone, Logan, Utah). Recombinant human TNFα, antibodies to VCAM-1, ICAM-1, E-Selectin were obtained from R&D Systems and LPS was obtained from Sigma (St. Louis, Mo.).
(§8) HUVECs were plated at […] in 96-well fibronectin-coated plates. The cells were stimulated with TNF-α (10 ng/ml) or LPS (1 μg/ml), 30 min after addition of test compound. After stimulation, cells (E-Selectin and ICAM-1) were fixed with paraformaldehyde in phosphate buffer saline (PBS). Non specific binding was blocked by 2% bovine serum albumin (BSA) in phosphate buffer saline (PBS) for 1 h, and the cells were incubated with primary antibody for 2 h. […] After washing, seven times, 3,3′5,5′-tetramethylbenzidine liquid substrate (TMB substrate) was added and the optical density of each well was determined at 450 nm using a microtitre plate reader (Spectramax, Molecular Devices, Calif.). […] Percent inhibition of the test sample compared to the control is evaluated. […]

E-Selectin = assay: Cell-ELISA for adhesion molecule expression in HUVECs: E-Selectin; settings: Homo sapiens; TNF-α-induced surface expression, HUVEC
Procedure: as §6, §7, §8

IL-8 [4] = assay: IL-8 production by synovial cells from a RA patient; settings: Homo sapiens, Synovial cell, 10 hours
Procedure: as §1, §2

IL-6 = assay: LPS-stimulated IL-6 release in hPBMCs (ELISA); settings: Homo sapiens; LPS-stimulated hPBMC
Procedure: as §5, §3, §4

With `C=C1C(=O)OC2C3=C(C)CCCC3(C)CCC12O` (stereo not shown) [Compound 1, 3a-hydroxy-5a,9-dimethyl-3-methylene-3a,4,5,5a,6,7,8,9b-octahydro-3H-naphtho[1,2-b]furan-2-one] as the molecule, how does the pIC50 (TNF-α [1]) read?
The pIC50 was 6.10.

And the pIC50 (TNF-α [2])?
The pIC50 was 6.15.

And the pIC50 (IL-8 [3])?
The pIC50 was 5.05.

What about the pIC50 (VCAM-1) of the same molecule?
The pIC50 was 6.40.

And the pIC50 (E-Selectin)?
The pIC50 was 6.70.

What about the pIC50 (IL-8 [4]) of the same molecule?
The pIC50 was 4.96.

And the pIC50 (IL-6)?
Its pIC50 is 5.80.
